Experimental data taken from US8138168B1 (Takeda Pharmaceutical Company Limited, priority 2007, dated 2012).

molecular target: T1, Recombinant human renin (Homo sapiens, UniProt P00797); assay: In vitro enzymatic activity assay of renin inhibitors (fluorogenic peptide substrate); format: biochemical; settings: read-out: IC50 of Exemplified Compounds Against Renin
T1 construct: isolate the active form (residues 67-406); made in house; host or cells: FreeStyle 293-F cells (transient expression of pcDNA3.1(+)/hREN)
T1 sequence (P00797 67-406): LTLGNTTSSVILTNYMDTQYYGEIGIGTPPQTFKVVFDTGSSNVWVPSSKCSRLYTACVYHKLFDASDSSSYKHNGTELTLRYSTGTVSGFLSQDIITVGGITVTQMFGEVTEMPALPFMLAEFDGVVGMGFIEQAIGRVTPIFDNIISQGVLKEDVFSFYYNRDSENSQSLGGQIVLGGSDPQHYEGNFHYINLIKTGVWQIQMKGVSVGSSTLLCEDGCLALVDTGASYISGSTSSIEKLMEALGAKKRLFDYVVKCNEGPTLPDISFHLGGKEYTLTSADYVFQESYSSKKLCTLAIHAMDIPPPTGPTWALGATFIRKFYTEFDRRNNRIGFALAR
Procedure, shortened: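 Enzyme: recombinant human renin, 3 nM final, 10 min compound pre-incubation at 37 °C; buffer 50 mM Hepes pH 7.4 with 0.1 mg/mL BSA or extra 2% BSA; 5% DMSO.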

| IC50 | SMILES |
| --- | --- |
| < 100 nM | COCCCn1c([C@@H]2CCCN(C(=O)C[C@H](N)Cc3ccc(-c4csc(N5CC[C@H](O)C5)n4)cc3)C2)nc2ccccc21 [Compound 435, (R)-3-amino-4-(4-(2-((S)-3-hydroxypyrrolidin-1-yl)thiazol-4-yl)phenyl)-1-((R)-3-(1-(3-methoxypropyl)-1H-benzo[d]imidazol-2-yl)piperidin-1-yl)butan-1-one] |
| 100 to 1000 nM | COCCCn1c([C@@H]2CCCN(C(=O)[C@@H]3CN(C(=O)c4cccc(C(=O)OC)c4)C[C@H]3N)C2)nc2ccccc21 [Compound 377, methyl 3-((3S,4R)-3-amino-4-((R)-3-(1-(3-methoxypropyl)-1H-benzo[d]imidazol-2-yl)piperidine-1-carbonyl)pyrrolidine-1-carbonyl)benzoate] |
| 100 to 1000 nM | COCCCn1c([C@@H]2CCCN(C(=O)[C@@H]3CN(C(=O)c4ccc(-c5ccccc5)o4)C[C@H]3N)C2)nc2ccccc21 [Compound 352, ((3R,4S)-4-amino-1-(5-phenylfuran-2-carbonyl)pyrrolidin-3-yl)((R)-3-(1-(3-methoxypropyl)-1H-benzo[d]imidazol-2-yl)piperidin-1-yl)methanone] |
| < 100 nM | COCCCn1c([C@@H]2CCCN(C(=O)C[C@H](N)Cc3ccc(-c4ccc(NC(=O)OC)cc4)cc3)C2)nc2ccccc21 [Compound 176, methyl 4′-((R)-2-amino-4-((R)-3-(1-(3-methoxypropyl)-1H-benzo[d]imidazol-2-yl)piperidin-1-yl)-4-oxobutyl)biphenyl-4-ylcarbamate] |
| 100 to 1000 nM | COCCCn1c([C@@H]2CCCN(C(=O)[C@@H]3CN(S(=O)(=O)c4c(Cl)cc(Cl)cc4Cl)C[C@H]3N)C2)nc2ccccc21 [Compound 340, ((3R,4S)-4-amino-1-(2,4,6-trichlorophenylsulfonyl)pyrrolidin-3-yl)((R)-3-(1(3-methoxypropyl)-1H-benzo[d]imidazol-2-yl)piperidin-1-yl)methanone] |
| 100 to 1000 nM | COCCCn1c([C@@H]2CCCN(C(=O)C[C@H](N)CNC(=O)c3cccc4ccccc34)C2)nc2ccccc21 [Compound 311, N-((S)-2-amino-4-((R)-3-(1-(3-methoxypropyl)-1H-benzo[d]imidazol-2-yl)piperidin-1-yl)-4-oxobutyl)-1-naphthamide] |

The remaining lines, values behind:

| SMILES | IC50 |
| --- | --- |
| COCCCn1c([C@@H]2CCCN(C(=O)C[C@H](N)c3cccc(OC)c3)C2)nc2ccccc21 [Compound 121] | > 1000 nM |
| COc1ccc(-c2ccc(C[C@@H](N)CC(=O)N3CCC[C@@H](c4nc5ccccc5n4CCC(N)=O)C3)cc2)cc1 [Compound 487, 3-(2-((R)-1-((R)-3-amino-4-(4′-methoxybiphenyl-4-yl)butanoyl)piperidin-3-yl)-1H-benzo[d]imidazol-1-yl)propanamide] | 100 to 1000 nM |
| COCCCNC(=O)c1ccc(-c2ccc(C[C@@H](N)CC(=O)N3CCC[C@@H](c4nc5ccccc5n4CCCOC)C3)cc2)cc1 [Compound 180, 4′-((R)-2-amino-4-((R)-3-(1-(3-methoxypropyl)-1H-benzo[d]imidazol-2-yl)piperidin-1-yl)-4-oxobutyl)-N-(3-methoxypropyl)biphenyl-4-carboxamide] | < 100 nM |
| COCCCn1c([C@@H]2CCCN(C(=O)C[C@H](N)Cc3ccc(-c4ccc(OC(C)C)nc4)cc3)C2)nc2ccccc21 [Compound 142, (R)-3-amino-4-(4-(6-isopropoxypyridin-3-yl)phenyl)-1-((R)-3-(1-(3-methoxypropyl)-1H-benzo[d]imidazol-2-yl)piperidin-1-yl)butan-1-one] | < 100 nM |
| CC(=O)NCCn1c([C@@H]2CCCN(C(=O)C[C@H](N)Cc3ccc(-c4ccc(O)nc4)cc3)C2)nc2ccccc21 [Compound 445, N-(2-(2-((R)-1-((R)-3-amino-4-(4-(6-hydroxypyridin-3-yl)phenyl)butanoyl)piperidin-3-yl)-1H-benzo[d]imidazol-1-yl)ethyl)acetamide] | 100 to 1000 nM |
